Measurements from paper PMC11364775, “Ion occupancy of the selectivity filter controls opening of a cytoplasmic gate in the K2P channel TALK-2” (Nature Communications, 2024).

Target: T1, WT TREK-2 channels (Homo sapiens, UniProt P57789)
T1 construct: expressed in transfected cells; host or cells: Xenopus laevis oocytes (cRNA injection), excised inside-out patches
T1 sequence (P57789 1-538): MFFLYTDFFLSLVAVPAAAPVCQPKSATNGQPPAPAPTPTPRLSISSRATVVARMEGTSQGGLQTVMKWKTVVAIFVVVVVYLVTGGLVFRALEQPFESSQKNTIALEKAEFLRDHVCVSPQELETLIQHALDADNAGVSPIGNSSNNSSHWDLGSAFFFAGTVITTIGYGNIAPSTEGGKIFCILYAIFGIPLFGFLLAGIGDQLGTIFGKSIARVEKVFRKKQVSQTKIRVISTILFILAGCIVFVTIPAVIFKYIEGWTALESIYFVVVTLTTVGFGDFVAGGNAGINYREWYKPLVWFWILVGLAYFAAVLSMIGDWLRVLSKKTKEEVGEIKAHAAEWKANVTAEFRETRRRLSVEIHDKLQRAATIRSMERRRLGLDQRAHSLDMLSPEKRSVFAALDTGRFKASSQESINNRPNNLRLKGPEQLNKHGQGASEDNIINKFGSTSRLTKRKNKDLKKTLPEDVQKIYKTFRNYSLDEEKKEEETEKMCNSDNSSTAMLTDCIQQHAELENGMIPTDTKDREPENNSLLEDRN
Test: Conductance-voltage (G-V) curves from tail currents, V1/2 (intracellular Rb+)
Type: cell-based
Description: The voltage-dependent activation mechanism of the SF gate in K2P channels allows to estimate the electrical work (ΔG = zFΔV1/2) required for pore opening by fitting the G–V curve to a Boltzmann equation. […] The open state represents the situation of both gates being simultaneously open but voltage can only exert force on the SF gate that functions as voltage sensor. […] We further tested whether mutations that open the lower gate (L262A and L264A) would affect the extracellular pH sensitivity. […] We further explored this concept of allosteric coupling using the mutations identified in the functional alanine screen of TM2 and TM4. […]
Conductance-voltage (G–V) relationships were determined from tail currents recorded at a holding potential (VH) of −80 mV after 300 ms depolarizing steps as indicated in the respective figure legend. Data were analyzed with a single Boltzmann fit following Eq. 6:6 GV=Imax/1+e^V−V1/2/slope+Ibase where V1/2 represents the voltage of half-maximal activation, s is the slope factor and Imax and Ibase represent the upper and lower asymptotes. Under appropriate experimental conditions, you can use slope to calculate the valence (charge) of the ion moving across the channel. Slope equals R * T/ z * F where R is the universal gas constant, T is temperature in K, F is the Faraday constant, and z is the valence.

In the case of `CCCCC[N+](CCCCC)(CCCCC)CCCCC` [TPenA, Tetra-pentyl-ammonium chloride], the “effect of TPenA on the G-V curve” value (TREK-2, intracellular Rb+) is reported as “not affected”, the Normalized current (TREK-2 WT + 0.1 mM TPenA, Voltage 0.000) is reported as 0.142 and the Normalized current (TREK-2 WT + 0.1 mM TPenA, Voltage 0.005) is reported as 0.177. It also gave a Normalized current (TREK-2 WT + 0.1 mM TPenA, Voltage 0.010) of 0.238, a Normalized current (TREK-2 WT + 0.1 mM TPenA, Voltage 0.015) of 0.307 and a Normalized current (TREK-2 WT + 0.1 mM TPenA, Voltage 0.020) of 0.404. For the same molecule, the Normalized current (TREK-2 WT + 0.1 mM TPenA, Voltage 0.025) was 0.485, the Normalized current (TREK-2 WT + 0.1 mM TPenA, Voltage 0.030) was 0.577 and the Normalized current (TREK-2 WT + 0.1 mM TPenA, Voltage 0.035) was 0.667. The Normalized current (TREK-2 WT + 0.1 mM TPenA, Voltage 0.040) was 0.719, the Normalized current (TREK-2 WT + 0.1 mM TPenA, Voltage 0.045) was 0.784 and the Normalized current (TREK-2 WT + 0.1 mM TPenA, Voltage 0.050) was 0.838. It also gave a Normalized current (TREK-2 WT + 0.1 mM TPenA, Voltage 0.055) of 0.851, a Normalized current (TREK-2 WT + 0.1 mM TPenA, Voltage 0.060) of 0.883 and a Normalized current (TREK-2 WT + 0.1 mM TPenA, Voltage 0.065) of 0.906. For the same molecule, the Normalized current (TREK-2 WT + 0.1 mM TPenA, Voltage 0.070) was 0.921, the Normalized current (TREK-2 WT + 0.1 mM TPenA, Voltage 0.075) was 0.924 and the Normalized current (TREK-2 WT + 0.1 mM TPenA, Voltage 0.080) was 0.944. It also gave a Normalized current (TREK-2 WT + 0.1 mM TPenA, Voltage 0.085) of 0.936, a Normalized current (TREK-2 WT + 0.1 mM TPenA, Voltage 0.090) of 0.949 and a Normalized current (TREK-2 WT + 0.1 mM TPenA, Voltage 0.095) of 0.963. For the same molecule, the Normalized current (TREK-2 WT + 0.1 mM TPenA, Voltage 0.100) was 0.966, the Normalized current (TREK-2 WT + 0.1 mM TPenA, Voltage 0.105) was 0.964 and the Normalized current (TREK-2 WT + 0.1 mM TPenA, Voltage 0.110) was 0.962. It also gave a Normalized current (TREK-2 WT + 0.1 mM TPenA, Voltage 0.115) of 0.961, a Normalized current (TREK-2 WT + 0.1 mM TPenA, Voltage 0.120) of 0.949 and a Normalized current (TREK-2 WT + 0.1 mM TPenA, Voltage 0.125) of 0.915. It also gave a Normalized current (TREK-2 WT + 0.1 mM TPenA, Voltage 0.130) of 0.965, a Normalized current (TREK-2 WT + 0.1 mM TPenA, Voltage 0.135) of 0.962 and a Normalized current (TREK-2 WT + 0.1 mM TPenA, Voltage 0.140) of 0.941. For the same molecule, the Normalized current (TREK-2 WT + 0.1 mM TPenA, Voltage 0.145) was 0.970, the Normalized current (TREK-2 WT + 0.1 mM TPenA, Voltage 0.150) was 0.939 and the Normalized current (TREK-2 WT + 0.1 mM TPenA, Voltage -0.005) was 0.115. For the same molecule, the Normalized current (TREK-2 WT + 0.1 mM TPenA, Voltage -0.010) was 0.097, the Normalized current (TREK-2 WT + 0.1 mM TPenA, Voltage -0.015) was 0.086 and the Normalized current (TREK-2 WT + 0.1 mM TPenA, Voltage -0.020) was 0.073. It also gave a Normalized current (TREK-2 WT + 0.1 mM TPenA, Voltage -0.025) of 0.072, a Normalized current (TREK-2 WT + 0.1 mM TPenA, Voltage -0.030) of 0.066 and a Normalized current (TREK-2 WT + 0.1 mM TPenA, Voltage -0.035) of 0.062. It also gave a Normalized current (TREK-2 WT + 0.1 mM TPenA, Voltage -0.040) of 0.062, a Normalized current (TREK-2 WT + 0.1 mM TPenA, Voltage -0.045) of 0.059 and a Normalized current (TREK-2 WT + 0.1 mM TPenA, Voltage -0.050) of 0.058. The Normalized current (TREK-2 WT + 0.1 mM TPenA, Voltage -0.055) was 0.055, the Normalized current (TREK-2 WT + 0.1 mM TPenA, Voltage -0.060) was 0.055 and the Normalized current (TREK-2 WT + 0.1 mM TPenA, Voltage -0.065) was 0.050. The Normalized current (TREK-2 WT + 0.1 mM TPenA, Voltage -0.070) was 0.049, the Normalized current (TREK-2 WT + 0.1 mM TPenA, Voltage -0.075) was 0.050 and the Normalized current (TREK-2 WT + 0.1 mM TPenA, Voltage -0.080) was 0.048. It also gave a Normalized current (TREK-2 WT + 0.1 mM TPenA, Voltage -0.085) of 0.046, a Normalized current (TREK-2 WT + 0.1 mM TPenA, Voltage -0.090) of 0.044 and a Normalized current (TREK-2 WT + 0.1 mM TPenA, Voltage -0.095) of 0.044. It also gave a Normalized current (TREK-2 WT + 1 mM TPenA, Voltage 0.000) of 0.164, a Normalized current (TREK-2 WT + 1 mM TPenA, Voltage 0.005) of 0.199 and a Normalized current (TREK-2 WT + 1 mM TPenA, Voltage 0.010) of 0.243. It also gave a Normalized current (TREK-2 WT + 1 mM TPenA, Voltage 0.015) of 0.286, a Normalized current (TREK-2 WT + 1 mM TPenA, Voltage 0.020) of 0.362 and a Normalized current (TREK-2 WT + 1 mM TPenA, Voltage 0.025) of 0.446. For the same molecule, the Normalized current (TREK-2 WT + 1 mM TPenA, Voltage 0.030) was 0.519, the Normalized current (TREK-2 WT + 1 mM TPenA, Voltage 0.035) was 0.589 and the Normalized current (TREK-2 WT + 1 mM TPenA, Voltage 0.040) was 0.634. The Normalized current (TREK-2 WT + 1 mM TPenA, Voltage 0.045) was 0.688, the Normalized current (TREK-2 WT + 1 mM TPenA, Voltage 0.050) was 0.702 and the Normalized current (TREK-2 WT + 1 mM TPenA, Voltage 0.055) was 0.751. It also gave a Normalized current (TREK-2 WT + 1 mM TPenA, Voltage 0.060) of 0.768, a Normalized current (TREK-2 WT + 1 mM TPenA, Voltage 0.065) of 0.790 and a Normalized current (TREK-2 WT + 1 mM TPenA, Voltage 0.070) of 0.818. The Normalized current (TREK-2 WT + 1 mM TPenA, Voltage 0.075) was 0.805, the Normalized current (TREK-2 WT + 1 mM TPenA, Voltage 0.080) was 0.838 and the Normalized current (TREK-2 WT + 1 mM TPenA, Voltage 0.085) was 0.838. For the same molecule, the Normalized current (TREK-2 WT + 1 mM TPenA, Voltage 0.090) was 0.887, the Normalized current (TREK-2 WT + 1 mM TPenA, Voltage 0.095) was 0.885 and the Normalized current (TREK-2 WT + 1 mM TPenA, Voltage 0.100) was 0.885. For the same molecule, the Normalized current (TREK-2 WT + 1 mM TPenA, Voltage 0.105) was 0.883, the Normalized current (TREK-2 WT + 1 mM TPenA, Voltage 0.110) was 0.905 and the Normalized current (TREK-2 WT + 1 mM TPenA, Voltage 0.115) was 0.909. The Normalized current (TREK-2 WT + 1 mM TPenA, Voltage 0.120) was 0.967, the Normalized current (TREK-2 WT + 1 mM TPenA, Voltage 0.125) was 0.928 and the Normalized current (TREK-2 WT + 1 mM TPenA, Voltage 0.130) was 0.900. For the same molecule, the Normalized current (TREK-2 WT + 1 mM TPenA, Voltage 0.135) was 0.929, the Normalized current (TREK-2 WT + 1 mM TPenA, Voltage 0.140) was 0.939 and the Normalized current (TREK-2 WT + 1 mM TPenA, Voltage 0.145) was 0.922. For the same molecule, the Normalized current (TREK-2 WT + 1 mM TPenA, Voltage 0.150) was 0.939, the Normalized current (TREK-2 WT + 1 mM TPenA, Voltage -0.005) was 0.135 and the Normalized current (TREK-2 WT + 1 mM TPenA, Voltage -0.010) was 0.126. For the same molecule, the Normalized current (TREK-2 WT + 1 mM TPenA, Voltage -0.015) was 0.111, the Normalized current (TREK-2 WT + 1 mM TPenA, Voltage -0.020) was 0.109 and the Normalized current (TREK-2 WT + 1 mM TPenA, Voltage -0.025) was 0.110. For the same molecule, the Normalized current (TREK-2 WT + 1 mM TPenA, Voltage -0.030) was 0.103, the Normalized current (TREK-2 WT + 1 mM TPenA, Voltage -0.035) was 0.102 and the Normalized current (TREK-2 WT + 1 mM TPenA, Voltage -0.040) was 0.096. It also gave a Normalized current (TREK-2 WT + 1 mM TPenA, Voltage -0.045) of 0.095, a Normalized current (TREK-2 WT + 1 mM TPenA, Voltage -0.050) of 0.089 and a Normalized current (TREK-2 WT + 1 mM TPenA, Voltage -0.055) of 0.092. For the same molecule, the Normalized current (TREK-2 WT + 1 mM TPenA, Voltage -0.060) was 0.088, the Normalized current (TREK-2 WT + 1 mM TPenA, Voltage -0.065) was 0.090 and the Normalized current (TREK-2 WT + 1 mM TPenA, Voltage -0.070) was 0.088. For the same molecule, the Normalized current (TREK-2 WT + 1 mM TPenA, Voltage -0.075) was 0.085, the Normalized current (TREK-2 WT + 1 mM TPenA, Voltage -0.080) was 0.084 and the Normalized current (TREK-2 WT + 1 mM TPenA, Voltage -0.085) was 0.087. It also gave a Normalized current (TREK-2 WT + 1 mM TPenA, Voltage -0.090) of 0.084 and a Normalized current (TREK-2 WT + 1 mM TPenA, Voltage -0.095) of 0.081.
